Results on four compounds are retold here after patent US20150175655A1 (priority 2012, published 2015).

The structures appear in SMILES notation. pKi: −log10 of the molar value.

This experiment concerns the target T1, NS3 genotype 3a protease (UniProt Q81258).
T1 construct: Purified NS3 protease domain (amino acids 1-181) of the genotype 1b and 3a virus were generated as above; fused on or other part: N-terminal hexahistidine tag and rTEV protease cleavage site (vector p28-N6H-Tev-NS3(181)3)
T1 sequence (Q81258 1033-1663): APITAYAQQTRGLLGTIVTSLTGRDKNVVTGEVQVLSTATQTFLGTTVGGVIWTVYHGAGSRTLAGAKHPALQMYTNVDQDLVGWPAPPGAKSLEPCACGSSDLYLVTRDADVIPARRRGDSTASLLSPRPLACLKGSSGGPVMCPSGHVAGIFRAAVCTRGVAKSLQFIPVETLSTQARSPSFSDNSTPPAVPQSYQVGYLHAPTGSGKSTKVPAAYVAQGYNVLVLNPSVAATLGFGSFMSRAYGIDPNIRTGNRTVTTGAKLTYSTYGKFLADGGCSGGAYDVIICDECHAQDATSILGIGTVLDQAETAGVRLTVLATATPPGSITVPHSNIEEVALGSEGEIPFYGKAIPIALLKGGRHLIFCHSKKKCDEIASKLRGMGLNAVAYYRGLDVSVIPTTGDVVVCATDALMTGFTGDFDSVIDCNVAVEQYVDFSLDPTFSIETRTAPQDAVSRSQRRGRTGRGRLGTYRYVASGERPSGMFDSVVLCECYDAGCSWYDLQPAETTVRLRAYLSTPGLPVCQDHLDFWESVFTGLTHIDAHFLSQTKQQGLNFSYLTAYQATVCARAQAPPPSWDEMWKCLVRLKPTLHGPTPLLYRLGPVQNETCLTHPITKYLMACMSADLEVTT
As to the kind of experiment: Ki determination, NS3 protease genotype 3a (fluorogenic depsipeptide substrate). It is filed as biochemical, hepatitis C virus. To be noted: 200 pM enzyme, 20 μM NS4A peptide, 2 μM substrate, read-out: Ki 3A. In short, it runs like this: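 Refolded His-tagged NS3 protease domain (aa 1-181, genotype 3a) at 200 pM with 20 μM NS4A peptide was pre-incubated 1 h at RT with inhibitor (100 nM–5 pM, 3-fold), then 2 μM FRET depsipeptide substrate was added in HEPES/40% glycerol/10% DMSO buffer. Steady-state rates over 90-120 min (ex 340/em 490 nm) versus inhibitor concentration gave Ki.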
For orientation: pKi means the negative decadic logarithm of the Ki, by convention in mol/L. Take `CC[C@@H]1[C@@H]2CN(C(=O)[C@H](C(C)(C)C)NC(=O)O[C@]3(C)CCC[C@H]3CCCCCc3nc4ccc(OC)cc4nc3O2)[C@@H]1C(=O)N[C@]1(C(=O)NS(=O)(=O)C2(C)CC2)C[C@H]1CC(F)F` [Example 41, (3aR,7S,10S,11S,12R,24aR)-7-tert-butyl-N-[(1R,2S)-2-(2,2-difluoroethyl)-1-{[(1-methylcyclopropyl)sulfonyl]carbamoyl}cyclopropyl]-11-ethyl-16-methoxy-3a-methyl-5,8-dioxo-1,2,3,3a,5,6,7,8,11,12,20,21,22,23,24,24a-hexadecahydro-10H-9,12-methanocyclopenta[18,19][1,10,3,6]dioxadiazacyclononadecino[11,12-b]quinoxaline-10-carboxamide]: the pKi was 9.10. The value for `COc1ccc2nc3c(nc2c1)O[C@H]1CN(C(=O)[C@H](C(C)(C)C)NC(=O)O[C@@H]2C[C@H]2CCCCC3F)[C@H](C(=O)N[C@]2(C(=O)NS(=O)(=O)C3(C)CC3)C[C@H]2C(F)F)[C@@H]1C` (stereo partly drawn) [Example 47, (1aR,5S,8S,9S,10R,22aR)-5-tert-butyl-N-[(1R,2R)-2-(difluoromethyl)-1-{[(1-methylcyclopropyl)sulfonyl]carbamoyl}cyclopropyl]-18-fluoro-14-methoxy-9-methyl-3,6-dioxo-1,1a,3,4,5,6,9,10,18,19,20,21,22,22a-tetradecahydro-8H-7,10-methanocyclopropa[18,19][1,10,3,6]dioxadiazacyclononadecino[11,12-b]quinoxaline-8-carboxamide] was 9.72; that for `CC[C@@H]1[C@@H]2CN(C(=O)[C@H](C(C)(C)C)NC(=O)O[C@@H]3C[C@H]3CC/C=C/C(F)(F)C3Nc4ccc(C#N)cc4N=C3O2)[C@@H]1C(=O)N[C@]1(C(=O)NS(=O)(=O)C2(C)CC2)C[C@H]1C(F)F` (stereo partly drawn) [Example 78, (1aR,5S,8S,9S,10R,19E,22aR)-5-tert-butyl-14-cyano-N-[(1R,2R)-2-(difluoromethyl)-1-{[(1-methylcyclopropyl)sulfonyl]carbamoyl}cyclopropyl]-9-ethyl-18,18-difluoro-3,6-dioxo-1,1a,3,4,5,6,9,10,17,17a,18,21,22,22a-tetradecahydro-8H-7,10-methanocyclopropa[18,19][1,10,3,6]dioxadiazacyclononadecino[11,12-b]quinoxaline-8-carboxamide] was 9.09.

As to `C[C@@H]1[C@@H]2CN(C(=O)[C@H](C(C)(C)C)NC(=O)O[C@@H]3C[C@H]3CCCCC(F)(F)c3nc4ccc(Cl)cc4nc3O2)[C@@H]1C(=O)N[C@]1(C(=O)NS(=O)(=O)C2(C)CC2)C[C@H]1C(F)F` [Example 88, (1aR,5S,8S,9S,10R,22aR)-5-tert-butyl-14-chloro-N-[(1R,2R)-2-(difluoromethyl)-1-{[(1-methylcyclopropyl)sulfonyl]carbamoyl}cyclopropyl]-18,18-difluoro-9-methyl-3,6-dioxo-1,1a,3,4,5,6,9,10,18,19,20,21,22,22a-tetradecahydro-8H-7,10-methanocyclopropa[18,19][1,10,3,6]dioxadiazacyclononadecino[11,12-b]quinoxaline-8-carboxamide], the pKi is 9.54.
